Reference: ChEMBL document CHEMBL5252585, “Structure optimization and discovery of novel compound for the treatment of insertion mutations within exon 20 of EGFR and HER2” (Bioorg Med Chem, 2023)
The source made the active and inactive calls. The rule behind the calls is not given here.

How the values were obtained:
BaF3 [1] = test: Inhibition of EGFR D770-N771 ins NPG mutant in mouse BaF3 cells assessed as reduction in EGFR phosphorylation at less than 1 nM incubated for 24 hrs by Western blot analysis; format: cell-based
[2] = Half life in Sprague-Dawley rat at 10 mg/kg, po measured upto 8 hrs by LC-MS/MS analysis; format: ADME, organism-based; settings: in vivo
BaF3 [3] = test: Antiproliferative activity against mouse BAF3 cells harboring FL-EGFR D770-N771 ins NPG mutant after 72 hrs by celltiter-Glo luminescence assay; format: functional, cell-based; settings: BaF3, 72 h
[4] = Clearance in Sprague-Dawley rat at 10 mg/kg, iv measured upto 8 hrs by LC-MS/MS analysis; format: ADME, organism-based; settings: in vivo
BaF3 [5] = test: Inhibition of HER2-A775-G776 ins YVMA mutant in mouse BaF3 cells assessed as reduction in HER2 phosphorylation incubated for 24 hrs by Western blot analysis; format: cell-based; settings: dose 1-100 nM
[6] = AUC(0 to t) in Sprague-Dawley rat at 10 mg/kg, iv measured upto 8 hrs by LC-MS/MS analysis; format: ADME, organism-based; parameters: dose 10 mg/kg, time < 8 hrs, route iv; settings: in vivo

half-life [2]: 6.93 h | IC50 (BaF3 [3]): 0.79 nM | clearance [4]: 2.32 mL/min | AUC(0-t) at 8 h [6]: 13900 ng·h/mL
SMILES: C=CC(=O)N1CCC(Oc2cc3c(Nc4cccc(Cl)c4F)ncnc3cc2O[C@H]2CCOC2)CC1
inhibition (BaF3 [1]): Active | inhibition (BaF3 [5]): Dose-Dependent Effect
